Assay [1] has as its system cell lines of human non-small cell lung cancer (H522). Nature of the assay: In vitro antineoplastic activity, MTT experiment, H522. Type of assay: cell-based. Particulars: H522 cells, 48 hours, highest concentration tested 31.6 μM (>30: inhibition rate <50%). The procedure: (§1) MTT, RPM1640 culture medium, fetal bovine serum, 96-well plate, CO2 thermostatic incubator, American BIO-RAD680 microplate reader, cell lines of human non-small cell lung cancer (H522), and cell lines of human brain glioma (U87) were all obtained commercially.
(§2) (1) Cell inoculation: A single cell suspension was prepared with culture media supplemented with 10% fetal bovine serum, plated into a 96-well plate with 5000 cells per well, each well having a volume of 100 μL, and cultured overnight.
(§3) (2) Preparation of compound solutions: a DMSO stock solution of a compound was diluted on a sterile bench with a culture medium into 5 concentrations to be tested, wherein a double dilution was employed between two adjacent concentrations.
(§4) (3) The compound solutions of various concentrations were added into the 96-well plate cultured overnight, with 100 μL added per well, triplicated wells for each concentration. Since the peripheral wells can have edge effect and are susceptible to contamination, no cells or compounds were added thereto; instead, 100 μL culture solution was added as a blank. Additionally, 100% wells were set to contain the cells and 100 μL culture media without any compound. The plates were incubated in a thermostatic incubator at 37° C. for 48 hours.
(§5) (4) Staining: 10 μL MTT solution (5 mg/mL, prepared with PBS) was added into the 96-well plate for staining. After incubation for 4 hours, centrifugation was performed at 2500 rpm for 10 minutes. Then, a multiple pipette was used to suck the culture solution out of the wells carefully without sucking out the cells while the pipette tip faced downward. 150 μL DMSO was added and shaken on a shaker for 5-10 minutes. Crystals were allowed to dissolve fully, and an OD value for each well was measured using the microplate reader at 570 nm. The inhibition rate was calculated as follows: Inhibition rate (%)=(average OD value of 100% wells−average OD value of compound wells)/(average OD value of 100% wells−average OD value of blank wells)×100%

For assay [2], the system named is cell lines of human brain glioma (U87). Nature of the assay: In vitro antineoplastic activity, MTT experiment, U87. It is filed as cell-based. The procedure: as §1, §2, §3, §4, §5
The test system of a further assay is human glioma U87 cells. In words: Tumor cell vacuolization (methuosis) scoring, U87. More on the design: key to Vacuolation Score: 5 scores were given when obvious vacuolization occurred at 10 nM; 4 scores at 31.6 nM; 3 scores at 100 nM; 2 scores at 316 nM; 1 score at 1000 nM; 0 score was given if no vacuolation occurred at any concentration. Type of assay: cell-based. As to conditions: for Vacuolation Score / ability to cause cell vacuolization (in words): U87 cells; for Vacuolation Score: 0.01-3.160 μM, microscope; for ability to cause cell vacuolization (in words): among the compounds tested. Here is the method: (§6) FIG. 2. Vacuolization of tumor cells. 100 microliter culture medium (RPMI1640, 2 mmol glutamine, 10% fetal bovine serum) containing 10^3 human colon adenocarcinoma cells (HCT15) or human brain glioma cells (U87) and a solvent DMSO control or 100 nM #40 compound (L16) was plated into a 96-well cell culture plate, and cell morphological image was taken under a phase contrast microscope after cultured at 5% CO2 and 37° C. for 96 hours.
Some cells gradually became round and eventually bursted. These changes are consistent with the features of cell death by methuosis (FIG. 2).
In order to compare the ability of different compounds to cause cell vacuolization, 100 μL culture media (RPMI1640, 2 mmol glutamine, 10% fetal bovine serum) comprising 10^3 human glioma U87 cells and final concentrations of 0.01, 0.0316, 0.1, 0.316, 1.0, 3.160 μM respectively of the compounds to be tested were inoculated into a 96-well culture plate. After cultured at 5% CO2 and 37° C. for 96 hours, cell morphology was observed under a high-magnification microscope, and the ability of the compounds to cause cell vacuolization was scored. 5 scores were given when obvious vacuolization occurred at 10 nM, 4 scores at 31.6 nM, 3 scores at 100 nM, 2 scores at 316 nM, 1 score at 1000 nM, and 0 score was given if no vacuolation occurred at any concentration.

Assay [3] relates to human colon adenocarcinoma cells (HCT15). In words: Tumor cell vacuolization, HCT15. Particulars: 100 nM, 96 hours, phase contrast microscope. Type of assay: cell-based. Here is the method:
as §6

For the next assay, the target named is T1, vimentin (Homo sapiens, UniProt P08670).
T1 construct: #79 compound used as a probe is bonded in situ to a target protein within a cell; endogenous in cells; host or cells: U87 human glioma cells
T1 sequence (P08670 whole entry): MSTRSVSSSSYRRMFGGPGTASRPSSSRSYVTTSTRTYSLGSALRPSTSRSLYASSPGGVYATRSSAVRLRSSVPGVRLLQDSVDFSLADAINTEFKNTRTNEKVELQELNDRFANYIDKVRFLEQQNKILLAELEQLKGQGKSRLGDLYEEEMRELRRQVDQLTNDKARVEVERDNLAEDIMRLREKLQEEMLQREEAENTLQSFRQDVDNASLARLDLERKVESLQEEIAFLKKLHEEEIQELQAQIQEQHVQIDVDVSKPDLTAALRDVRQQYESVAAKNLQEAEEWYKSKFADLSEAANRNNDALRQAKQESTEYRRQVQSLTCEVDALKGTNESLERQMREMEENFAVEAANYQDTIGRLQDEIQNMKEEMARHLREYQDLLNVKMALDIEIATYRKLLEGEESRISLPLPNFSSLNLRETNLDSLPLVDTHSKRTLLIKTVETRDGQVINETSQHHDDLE
In words: Fishing of a target protein with a probe (photo-crosslinking, click reaction, MALDI-MS/MS). Type of assay: binding. Particulars: 0.5 μM probe, U87 cells, 3 hours, UV crosslinking. Here is the method:
FIG. 4 summarizes isolation and identification of a target protein corresponding to a compound causing cell vacuolization. The related steps are described briefly as follows.
An amount of human glioma cells U87 were plated in an 150 cm^2 Petri dish and cultured for 48 hours to reach 75-90% confluence. The culture medium was replaced with a prewarmed medium containing either 0.5 μM probe (#79 compound) or an equivalent volume of DMSO control. The cells continued in culture for 3 hours.
The cells were washed twice with a prechilled phosphate buffer saline (PBS). The cell-culture dish was placed on ice, and the cells were irradiated with ultraviolet light (an ultraviolet lamp having a power of 100 W, wavelength 350 nm, or 315-385 nm) through the top of the dish for 1 hour. Alternatively, a minimal amount of prechilled PBS (10 ml/150 cm^2) was added to the cell-culture dish which was then placed on an ultraviolet irradiator. The bottom of the cell-culture dish received irradiation for 30 minutes (wavelength 315-385 nm, time being adjusted in light of the ultraviolet power).
The cells were dissociated with trypsin, precipitated by centrifugation, and washed twice with PBS. […] The protein concentration of the cell lysate was measured using the Bradford method. […]

The mark [4] stands for this setting: U87 cells, MTT, 48 hours, highest concentration tested 31.6 μM, read-out: IC50(μM) U87.
[5] abbreviates: ability to inhibit cell proliferation, U87 (FIG. 3), unit inferred, read-out: IC50.

Read-outs that look alike come from different tables or passages of the source.

Usually IC50 stands for the midpoint of a concentration-inhibition curve.

On to `O=C(Nc1ccc(Cl)cc1)Nc1ccc(Nc2nc(/C=C/c3cccc([N+](=O)[O-])c3)nc(N3CCOCC3)n2)cc1` [L16, (E)-1-(4-chlorophenyl)-3-(4-(4-(morpholin-1-yl)-6-(3-nitrostyrenyl)-1,3,5-triazinyl-2-amino)phenyl)urea], for which the IC50 in assay [1] turned out to be 0.78 ± 0.04 µM; in assay [2] (setting [4]), 1.71 ± 0.06 µM; in assay [2] (setting [5]), 1.71 µM. Besides, the “vacuolization of U87 cells” value in the assay on human glioma U87 cells (100 nM, 96 hours, phase contrast microscope) is “significant vaculization”. In addition, the “Vacuolation Score” value with human glioma U87 cells (96 hours) was 4 (4 scores at 31.6 nM). For the same compound, the “vacuolization of HCT15 cells” value in assay [3] is “significant vaculization”.
For `C#CCCC1(CCNC(=O)c2ccc(NC(=O)Nc3ccc(Nc4nc(/C=C/c5ccccc5)nc(N5CCOCC5)n4)cc3)cc2)N=N1` [compound 79, (E)-N-(2-(3-(1-butyn-4-yl)-3H-diaziridin-3-yl)ethyl)-4-(3-(4-((4-(morpholin-1-yl)-6-styrenyl-1,3,5-triazin-2-yl)amino)phenyl)urea)benzamide], the “Vacuolation Score” value with human glioma U87 cells (96 hours) is recorded as 4.5. Also, the “ability to cause cell vacuolization (in words)” value with human glioma U87 cells is recorded as “same cell phenotype”. The “target protein of the compound” value on vimentin is “vimentin”.
With `CN1CCN(c2nc(/C=C/c3ccccc3)nc(Nc3ccc(NC(=O)Nc4ccc(Cl)cc4)cc3)n2)CC1` [L3, (E)-1-(4-chlorophenyl)-3-(4-(4-(4-methylpiperazin-1-yl)-6-styrenyl-1,3,5-triazinyl-2-amino)phenyl)urea], the concentration for half-maximal inhibition (IC50) in assay [1] is over 30 µM; in assay [2] (setting [4]), 10.6 ± 1.2 µM; in assay [2] (setting [5]), over 10 µM. The “Vacuolation Score” value with human glioma U87 cells (96 hours) is recorded as 0.
`CN1CCN(c2nc(/C=C/c3ccc(Cl)cc3)nc(Nc3ccc(NC(=O)Nc4cccc(F)c4)cc3)n2)CC1` [L15, (E)-1-(3-fluorophenyl)-3-(4-(4-(4-methylpiperazin-1-yl)-6-(4-chlorostyrenyl)-1,3,5-triazinyl-2-amino)phenyl)urea]: the values for the IC50 in assay [1], in assay [2] (setting [4]) and in assay [2] (setting [5]) were 4.26 ± 0.1 µM, 2.92 ± 0.21 µM and 2.91 µM, respectively. Moreover, the “Vacuolation Score” value in the assay with human glioma U87 cells (96 hours) came out at 0.
In the case of `O=C(Nc1ccc(Cl)cc1)Nc1ccc(Nc2nc(/C=C/c3ccccc3)nc(N3CCOCC3)n2)cc1` [L1, (E)-1-(4-chlorophenyl)-3-(4-(4-(morpholin-1-yl)-6-styrenyl-1,3,5-triazinyl-2-amino)phenyl)urea], the results for the IC50 in assay [1], in assay [2] (setting [4]) and in assay [2] (setting [5]) were 3.26 ± 0.34 µM, 4.79 ± 0.55 µM and 3.53 µM, respectively. Further, in the assay with human glioma U87 cells (96 hours), the “Vacuolation Score” value is listed as 5 (5 scores were given when obvious vacuolization occurred at 10 nM). Besides, the “ability to cause cell vacuolization (in words)” value with human glioma U87 cells is “strongest ability to cause cell vacuolization”.
As to `O=C(Nc1ccc(Cl)cc1)Nc1ccc(Nc2nc(/C=C/c3ccc(Cl)cc3)nc(N3CCOCC3)n2)cc1` [L10, (E)-1-(4-chlorophenyl)-3-(4-(4-(morpholin-1-yl)-6-(4-chlorostyrenyl)-1,3,5-triazinyl-2-amino)phenyl)urea], the IC50 came to 2.18 ± 0.23 µM in assay [1], 4.92 ± 0.16 µM in assay [2] (setting [4]) and 4.92 µM in assay [2] (setting [5]). Besides, the “Vacuolation Score” value in the assay with human glioma U87 cells (96 hours) is 3 (3 scores at 100 nM).
For `CN(C)c1nc(/C=C/c2cccc([N+](=O)[O-])c2)nc(Nc2ccc(NC(=O)Nc3ccc(Cl)cc3)cc2)n1` [L20, (E)-1-(4-chlorophenyl)-3-(4-(4-dimethylamino-6-(3-nitrostyrenyl)-1,3,5-triazinyl-2-amino)phenyl)urea], the results for the IC50 in assay [1], in assay [2] (setting [4]) and in assay [2] (setting [5]) were 5.55 ± 0.4 µM, 5.12 ± 0.28 µM and 5.12 µM, respectively. Besides, in the assay on human glioma U87 cells (96 hours), the “Vacuolation Score” value is recorded as 0.
